Source: publication PMC10088252

Settings: Total (n=38)
Experimental: Dose adjustment was allowed according to the severity of toxicity [Supplementary Table 1].
The primary endpoints were safety, ORR and DCR assessed by investigators. […] AEs referred to treatment-emergent adverse events (TEAEs) and TRAEs were assessed by investigators. Serious adverse events (SAEs) referred to AEs meeting at least one of the following criteria: event leading to death; life-threatening event; event requiring hospitalization or extension of hospital stay; event leading to persistent or evident disability or dysfunction; event leading to congenital malformation or birth defect or event which might lead to injury or that need medical treatment to avoid the above mentioned important medical events.

In the case of `O=C(Nc1ccc(Oc2ccnc3c2CCN3)c(F)c1)c1c[nH]cc(-c2ccc(F)cc2)c1=O`, the “TRAE Elevated blood creatinine, grade 3-4” value is reported as 0 n (%), the “TRAE Elevated creatine phosphokinase, any grade” value is reported as 3 (7.9) n (%) and the “TRAE Elevated creatine phosphokinase, grade 3-4” value is reported as 0 n (%). The “TRAE Elevated serum urea, any grade” value was 1 (2.6) n (%), the “TRAE Elevated serum urea, grade 3-4” value was 0 n (%) and the “TRAE Elevated troponin, any grade” value was 1 (2.6) n (%). The “TRAE Elevated troponin, grade 3-4” value was 0 n (%), the “TRAE Genital rash, any grade” value was 1 (2.6) n (%) and the “TRAE Genital rash, grade 3-4” value was 0 n (%). The “TRAE Haematuria, any grade” value was 3 (7.9) n (%), the “TRAE Haematuria, grade 3-4” value was 0 n (%) and the “TRAE Headache, any grade” value was 1 (2.6) n (%). The “TRAE Headache, grade 3-4” value was 0 n (%), the “TRAE Hyperhidrosis, any grade” value was 1 (2.6) n (%) and the “TRAE Hyperhidrosis, grade 3-4” value was 0 n (%). The “TRAE Hyperlipidaemia, any grade” value was 1 (2.6) n (%), the “TRAE Hyperlipidaemia, grade 3-4” value was 0 n (%) and the “TRAE Hypertension, any grade” value was 4 (10.5) n (%). The “TRAE Hypertension, grade 3-4” value was 1 (2.6) n (%), the “TRAE Hypoaesthesia oral, any grade” value was 2 (5.3) n (%) and the “TRAE Hypoaesthesia oral, grade 3-4” value was 0 n (%). The “TRAE Hypocalcaemia, any grade” value was 1 (2.6) n (%), the “TRAE Hypocalcaemia, grade 3-4” value was 0 n (%) and the “TRAE Hypotension, any grade” value was 1 (2.6) n (%). The “TRAE Hypotension, grade 3-4” value was 0 n (%), the “TRAE Insomnia, any grade” value was 1 (2.6) n (%) and the “TRAE Insomnia, grade 3-4” value was 0 n (%). The “TRAE Leukopenia, any grade” value was 3 (7.9) n (%), the “TRAE Leukopenia, grade 3-4” value was 0 n (%) and the “TRAE Nausea, any grade” value was 3 (7.9) n (%). For the same compound, the “TRAE Nausea, grade 3-4” value was 0 n (%), the “TRAE Neuritis, any grade” value was 2 (5.3) n (%) and the “TRAE Neuritis, grade 3-4” value was 0 n (%). The “TRAE Occult blood, any grade” value was 2 (5.3) n (%), the “TRAE Occult blood, grade 3-4” value was 0 n (%) and the “TRAE Oedema peripheral, any grade” value was 2 (5.3) n (%). For the same compound, the “TRAE Oedema peripheral, grade 3-4” value was 0 n (%), the “TRAE Onycholysis, any grade” value was 1 (2.6) n (%) and the “TRAE Onycholysis, grade 3-4” value was 0 n (%). The “TRAE Oropharyngeal pain, any grade” value was 1 (2.6) n (%), the “TRAE Oropharyngeal pain, grade 3-4” value was 1 (2.6) n (%) and the “TRAE PPE” value was 23.7%. The “TRAE PPE, any grade” value was 9 (23.7) n (%), the “TRAE PPE, grade 3-4” value was 4 (10.5) n (%) and the “TRAE Paraesthesia, any grade” value was 1 (2.6) n (%). For the same compound, the “TRAE Paraesthesia, grade 3-4” value was 0 n (%), the “TRAE Proteinuria, any grade” value was 4 (10.5) n (%) and the “TRAE Proteinuria, grade 3-4” value was 1 (2.6) n (%). For the same compound, the “TRAE Pruritus, any grade” value was 1 (2.6) n (%), the “TRAE Pruritus, grade 3-4” value was 0 n (%) and the “TRAE Rash maculo-papular, any grade” value was 1 (2.6) n (%). For the same compound, the “TRAE Rash maculo-papular, grade 3-4” value was 0 n (%), the “TRAE Sinus tachycardia, any grade” value was 1 (2.6) n (%) and the “TRAE Sinus tachycardia, grade 3-4” value was 0 n (%). For the same compound, the “TRAE Skin fissures, any grade” value was 1 (2.6) n (%), the “TRAE Skin fissures, grade 3-4” value was 1 (2.6) n (%) and the “TRAE Supraventricular extrasystoles, any grade” value was 1 (2.6) n (%). The “TRAE Supraventricular extrasystoles, grade 3-4” value was 0 n (%), the “TRAE Thrombocytopenia, any grade” value was 3 (7.9) n (%) and the “TRAE Thrombocytopenia, grade 3-4” value was 2 (5.3) n (%). For the same compound, the “TRAE Upper respiratory tract infection, any grade” value was 1 (2.6) n (%), the “TRAE Upper respiratory tract infection, grade 3-4” value was 0 n (%) and the “TRAE Urinary retention, any grade” value was 1 (2.6) n (%). The “TRAE Urinary retention, grade 3-4” value was 0 n (%), the “TRAE Urinary tract infection, any grade” value was 3 (7.9) n (%) and the “TRAE Urinary tract infection, grade 3-4” value was 0 n (%). For the same compound, the “TRAE Ventricular arrhythmia, any grade” value was 3 (7.9) n (%), the “TRAE Ventricular arrhythmia, grade 3-4” value was 0 n (%) and the “TRAE Ventricular extrasystoles, any grade” value was 1 (2.6) n (%). The “TRAE Ventricular extrasystoles, grade 3-4” value was 0 n (%), the “TRAE Vomiting, any grade” value was 2 (5.3) n (%) and the “TRAE Vomiting, grade 3-4” value was 0 n (%). The “TRAE Weight loss, any grade” value was 1 (2.6) n (%), the “TRAE Weight loss, grade 3-4” value was 0 n (%) and the TRAE constipation was 21.1%. The TRAE dysgeusia was 23.7%, the “TRAE elevated ALT” value was 36.8% and the “TRAE elevated AST” value was 28.9%. For the same compound, the “grade ≥ 3 TEAEs, patients” value was 36.8%, the “grade ≥ 3 TRAE PPE” value was 10.5% and the “grade ≥ 3 TRAEs, patients” value was 28.9%. For the same compound, the “patients with at least one TEAE” value was “All the 38 patients”, the treatment-related deaths was “No treatment-related deaths occurred” and the “TRAE leading to treatment discontinuation, patients” value (grade 3 PPE in 400 mg BID cohort) was 2.6%. For the same compound, the “treatment-related SAE, patients” value (thrombocytopenia in 600 mg QD cohort) was 2.6%.
